Earlier results as cited in US7691423B2, “Method of treating inflammation disorders using extracts of passion fruit” (priority 2005, dated 2010).

Tests used:
[1] = test system: spontaneously hypertensive rat (SHR) cells; conditions: SHR cells in vitro

Row | Compound | Large dose acetylcholine-induced vascular contraction (vascular contraction) | NOLA-dependent spontaneous aortic ring contraction [1] | iNOS mRNA and the production of nitric oxide (iNOS)
1 | O=c1ccc2cc(O)c(O)cc2o1 [esculetin] | inhibited | – | –
2 | O=c1c(O)c(-c2ccc(O)cc2)oc2cc(O)cc(O)c12 [kaempferol] | inhibited | inhibit | –
3 | O=c1c(O)c(-c2ccc(O)c(O)c2)oc2cc(O)cc(O)c12 [quercetin] | inhibited | inhibit | inhibit
